Laboratory results: patent US9096492B2, “Hydrated N-fullerene amino acids, method for producing the latter, and pharmaceutical compositions on the basis thereof” (priority 2011, dated 2015)

How the values were obtained:
[1] = test system: A/Aichi/2/69 (H3N2) influenza virus; test: Induced influenza pneumonia in mice; details: for Death rate (%) / Percent death protection (%) / Survival (survivors/total) / Average lifetime (days): observation day 16
solid Ehrlich carcinoma = test: Solid Ehrlich carcinoma in white mice, tumor size dynamics
[2] = Chronic toxicity in rats, intramuscular 30 days: clinical observation and body weight; details: 3, 9, or 20 mg/kg intramuscularly daily for a month
[3] = intraperitoneally 100 mg/kg/day

Substance: N-fullerene tris(δ-aminocaproic acid) hydrate [Agent 1]
- Death rate (%) ([1]; intramuscularly 100 mg/kg/day): 20%
- Percent death protection (%) ([1]; intramuscularly 100 mg/kg/day): 70%
- Survival (survivors/total) ([1]; intramuscularly 100 mg/kg/day): 8/10
- Percent body weight change ([1]; intramuscularly 200 mg/kg/day, day 1 post infection): +11%
- Percent body weight change ([1]; intramuscularly 200 mg/kg/day, day 2 post infection): +20%
- Percent body weight change ([1]; intramuscularly 200 mg/kg/day, day 3 post infection): +26%
- Percent body weight change ([1]; intramuscularly 200 mg/kg/day, day 4 post infection): +35%
- Percent body weight change ([1]; intramuscularly 200 mg/kg/day, day 5 post infection): +39%
- Percent body weight change ([1]; intramuscularly 200 mg/kg/day, day 7 post infection): +43%
- Percent body weight change ([1]; intramuscularly 200 mg/kg/day, day 9 post infection): +51%
- Percent body weight change ([1]; intramuscularly 200 mg/kg/day, day 11 post infection): +62%
- Percent body weight change ([1]; intramuscularly 200 mg/kg/day, day 13 post infection): +70%
- Average lifetime (days) ([1]; intramuscularly 200 mg/kg/day): 14.4 (1-10 d) days
- Death rate (%) ([1]; intramuscularly 200 mg/kg/day): 10%
- Percent death protection (%) ([1]; intramuscularly 200 mg/kg/day): 80%
- Survival (survivors/total) ([1]; intramuscularly 200 mg/kg/day): 9/10
- tolerability in infected mice ([1]; intraperitoneal, 200 mg/kg/day): toxic
- Percent body weight change ([1]; intraperitoneally 50 mg/kg/day, day 1 post infection): +11%
- Percent body weight change ([1]; intraperitoneally 50 mg/kg/day, day 2 post infection): +17%
- Percent body weight change ([1]; intraperitoneally 50 mg/kg/day, day 3 post infection): +22%
- Percent body weight change ([1]; intraperitoneally 50 mg/kg/day, day 4 post infection): +25%
- Percent body weight change ([1]; intraperitoneally 50 mg/kg/day, day 5 post infection): +28%
- Percent body weight change ([1]; intraperitoneally 50 mg/kg/day, day 7 post infection): +35%
- Percent body weight change ([1]; intraperitoneally 50 mg/kg/day, day 9 post infection): +41%
- Percent body weight change ([1]; intraperitoneally 50 mg/kg/day, day 11 post infection): +67%
- Percent body weight change ([1]; intraperitoneally 50 mg/kg/day, day 13 post infection): +77%
- Average lifetime (days) ([1]; intraperitoneally 50 mg/kg/day): 11.5 (1-5 d., 1-7 d., 3-11 d.) days
- Death rate (%) ([1]; intraperitoneally 50 mg/kg/day): 50%
- Percent death protection (%) ([1]; intraperitoneally 50 mg/kg/day): 40%
- Survival (survivors/total) ([1]; intraperitoneally 50 mg/kg/day): 5/10
- Percent body weight change ([1]; intraperitoneally 100 mg/kg/day, day 1 post infection): +9%
- Percent body weight change ([1]; intraperitoneally 100 mg/kg/day, day 2 post infection): +15%
- Percent body weight change ([1]; intraperitoneally 100 mg/kg/day, day 3 post infection): +19%
- Percent body weight change ([1]; intraperitoneally 100 mg/kg/day, day 4 post infection): +21%
- Percent body weight change ([1]; intraperitoneally 100 mg/kg/day, day 5 post infection): +21%
- Percent body weight change ([1]; intraperitoneally 100 mg/kg/day, day 7 post infection): +27%
- Percent body weight change ([1]; intraperitoneally 100 mg/kg/day, day 9 post infection): +37%
- Percent body weight change ([1]; intraperitoneally 100 mg/kg/day, day 11 post infection): +50%
- Percent body weight change ([1]; intraperitoneally 100 mg/kg/day, day 13 post infection): +82%
- Average lifetime (days) [1, 3]: 11.0 (3-7 d., 1-8 d., 1-11 d) days
- Death rate (%) [1, 3]: 50%
- Percent death protection (%) [1, 3]: 40%
- Survival (survivors/total) [1, 3]: 5/10
- Percent body weight change ([1]; orally 100 mg/kg/day, day 1 post infection): +12%
- Percent body weight change ([1]; orally 100 mg/kg/day, day 2 post infection): +17%
- Percent body weight change ([1]; orally 100 mg/kg/day, day 3 post infection): +23%
- Percent body weight change ([1]; orally 100 mg/kg/day, day 4 post infection): +25%
- Percent body weight change ([1]; orally 100 mg/kg/day, day 5 post infection): +24%
- Percent body weight change ([1]; orally 100 mg/kg/day, day 7 post infection): +21%
- Percent body weight change ([1]; orally 100 mg/kg/day, day 9 post infection): +23%
- Percent body weight change ([1]; orally 100 mg/kg/day, day 11 post infection): +34%
- Percent body weight change ([1]; orally 100 mg/kg/day, day 13 post infection): +44%
- Average lifetime (days) ([1]; orally 100 mg/kg/day): 10.4 (2-7 d., 1-9 d., 1-10 d) days
- Death rate (%) ([1]; orally 100 mg/kg/day): 50%
- Percent death protection (%) ([1]; orally 100 mg/kg/day): 40%
- Survival (survivors/total) ([1]; orally 100 mg/kg/day): 5/10
- Percent body weight change ([1]; orally 200 mg/kg/day, day 1 post infection): +15%
- Percent body weight change ([1]; orally 200 mg/kg/day, day 2 post infection): +20%
- Percent body weight change ([1]; orally 200 mg/kg/day, day 3 post infection): +23%
- Percent body weight change ([1]; orally 200 mg/kg/day, day 4 post infection): +25%
- Percent body weight change ([1]; orally 200 mg/kg/day, day 5 post infection): +24%
- Percent body weight change ([1]; orally 200 mg/kg/day, day 7 post infection): +22%
- Percent body weight change ([1]; orally 200 mg/kg/day, day 9 post infection): +25%
- Percent body weight change ([1]; orally 200 mg/kg/day, day 11 post infection): +45%
- Percent body weight change ([1]; orally 200 mg/kg/day, day 13 post infection): +57%
- Average lifetime (days) ([1]; orally 200 mg/kg/day): 13.0 (1-7 d., 1-10 d., 1-11 d) days
- Death rate (%) ([1]; orally 200 mg/kg/day): 30%
- Percent death protection (%) ([1]; orally 200 mg/kg/day): 60%
- Survival (survivors/total) ([1]; orally 200 mg/kg/day): 7/10
- Tumor size (mm^3) (solid Ehrlich carcinoma; 100 mg/kg, day 8 post transplantation): 72.5 mm^3
- Tumor size (mm^3) (solid Ehrlich carcinoma; 100 mg/kg, day 13 post transplantation): 544.3 mm^3
- Tumor size (mm^3) (solid Ehrlich carcinoma; 100 mg/kg, day 17 post transplantation): 693.6 mm^3
- Tumor size (mm^3) (solid Ehrlich carcinoma; 100 mg/kg, day 21 post transplantation): 1250.8 mm^3
- Tumor size (mm^3) (solid Ehrlich carcinoma; 100 mg/kg, day 24 post transplantation): 1654.3 mm^3
- Tumor size (mm^3) (solid Ehrlich carcinoma; 100 mg/kg, day 28 post transplantation): 2239.8 mm^3
- Tumor size (mm^3) (solid Ehrlich carcinoma; 300 mg/kg, day 8 post transplantation): 72.7 mm^3
- Tumor size (mm^3) (solid Ehrlich carcinoma; 300 mg/kg, day 13 post transplantation): 416.3 mm^3
- Tumor size (mm^3) (solid Ehrlich carcinoma; 300 mg/kg, day 17 post transplantation): 1224.6 mm^3
- Tumor size (mm^3) (solid Ehrlich carcinoma; 300 mg/kg, day 21 post transplantation): 1703.4 mm^3
- Tumor size (mm^3) (solid Ehrlich carcinoma; 300 mg/kg, day 24 post transplantation): 2048.5 mm^3
- Tumor size (mm^3) (solid Ehrlich carcinoma; 300 mg/kg, day 28 post transplantation): 2525.7 mm^3
- clinical signs of poisoning [2]: no clinical signs of poisoning were observed
